Source: US12338264B2, “Crystalline potassium salt of 2-O-α-D-glucosyl-L-ascorbic acid and method for producing the same” (NAGASE VIITA CO., LTD., priority 2019, dated 2025)

Key:
[1] = pH of 1% by mass aqueous solution; type: physicochemical; details: dissolved in deionized water
Method: 1% by mass of aqueous solution of the crystal obtained in Experiment 1 was prepared and its pH was measured.
A commercially available particulate composition containing anhydrous crystalline ascorbic acid 2-glucoside (product name “Ascofresh” (registered trademark), commercialized by Hayashibara Co., Ltd., Okayama, Japan) and a hydrous crystalline potassium salt of ascorbic acid 2-glucoside, obtained by the method in the Experiment 1 were made into compositions with the ratios by mass ranging from 100:0 to 0:100 as shown in Table 3. Each of the resulting compositions was dissolved in deionized water to give a concentration of 1% by mass, following by measuring the pHs of the resulting solutions.

[2] = Hygroscopicity: mass increase on storage at 75.2% relative humidity; type: physicochemical; details: relative humidity 75.2%; for Increase rate of mass: at room temperature, after storage for 24 hours
Method: An experiment was carried out to compare the hygroscopicity of both the hydrous crystalline potassium salt of ascorbic acid 2-glucoside, obtained by the method in the Experiment 1, and the hydrous crystalline sodium salt of ascorbic acid 2-glucoside, obtained by the method described in Patent Literature 10. That is, 0.5 g each of the hydrous crystalline potassium salt of ascorbic acid 2-glucoside and the hydrous crystalline sodium salt of ascorbic acid 2-glucoside were weighted and stored in a desiccator conditioned to 75.2% relative humidity (RH) using saturated salt solution for 24 hours at room temperature. After that, the mass of each was measured, the mass increased by moisture absorption was determined, and the increase rate of mass {(Mass increased by storage)/(Mass at the beginning of storage)×100} (% by mass) was determined.

Row | pH of 1% by mass aqueous solution [1] | Increase rate of mass [2] [% by mass] | Increase rate of mass relative to that of the hydrous crystalline sodium salt of ascorbic acid 2-glucoside ([2]; room temperature, 24 hours) | Molecule
1 | 2.2 |  |  | O=C1O[C@H]([C@@H](O)CO)C(O)=C1O[C@H]1O[C@H](CO)[C@@H](O)[C@H](O)[C@H]1O [2-O-α-D-Glucosyl-L-ascorbic acid]
2 |  | 15.8 |  | hydrous crystalline sodium salt of ascorbic acid 2-glucoside [reference compound]
3 | 12.7 | 9.1 | under 60% | O=C1O[C@H]([C@@H](O)CO)C([O-])=C1O[C@H]1O[C@H](CO)[C@@H](O)[C@H](O)[C@H]1O.[K+] [hydrous crystalline potassium salt of ascorbic acid 2-glucoside]
